Values of other authors as cited in patent US20030215409A1, “Process for the treatment of human keratinous fibers” (L'OREAL, priority 2002, published 2003).

System: hair
Settings: hair densification, current compositions

## Nc1ccnc(N)[n+]1[O-] [aminexil]
  time after which the user begins to have a benefit: 1.5 months
